From PubChem BioAssay AID1552 (Sanford-Burnham Center for Chemical Genomics, 2009)
Activity calls are given as the source filed them. How the calls were made is not given here.

Molecular target: Ubiquitin-conjugating enzyme E2 N (Homo sapiens) (UniProt P61088)
Assay: NMR detection of UBE2N ligand binding – biophysical, purified protein (AID 1552)
Details: NMR binding to purified UBE2N

Sequence of Ubiquitin-conjugating enzyme E2 N (Homo sapiens) (P61088 whole entry, looked up): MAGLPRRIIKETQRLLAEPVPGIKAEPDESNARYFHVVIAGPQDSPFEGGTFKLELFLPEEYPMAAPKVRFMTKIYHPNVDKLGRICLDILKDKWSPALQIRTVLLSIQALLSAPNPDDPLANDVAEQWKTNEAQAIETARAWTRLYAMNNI

Structure (SMILES)	Kd
Cc1nc2ccccc2c2c1C(=O)N(C)C2=O	> 4 mM (inactive)
COc1ccc(-c2cc(=O)c3c(O)cc(O[C@@H]4O[C@H](CO[C@H]5O[C@H](C)[C@@H](O)[C@H](O)[C@@H]5O)[C@@H](O)[C@H](O)[C@H]4O)cc3o2)cc1O	> 4 mM (inactive)
COc1ccc(C(O)c2nccn2C)cc1 (stereo not given)	> 4 mM (inactive)
O=c1oc(-c2ccccc2)nc2c1cnn2-c1ccccc1	> 4 mM (inactive)
NC(=O)c1ccc(NC(=O)c2ccco2)cc1	> 4 mM (inactive)
O=C(O)Cn1cc(C(=O)C2CC2)c2ccccc21	> 4 mM (inactive)
CC(C)n1nnc2cc(C(=O)O)ccc21	> 4 mM (inactive)
NC12CC3CC(C1)CC(C(=O)O)(C3)C2	> 4 mM (inactive)
Cc1nc(-c2cccc(N)c2)cs1	> 4 mM (inactive)
O=C(CN1CCOCC1)Nc1cccc(Br)c1	> 4 mM (inactive)
CC(=O)Oc1ccccc1N1C(=O)C=CC1=O	> 4 mM (inactive)
O=c1c(Cl)c(NCCO)ncn1-c1ccccc1	> 4 mM (inactive)
CCCc1cc2c(c(NC(C)=O)n1)c(=O)oc1ccccc12	> 4 mM (inactive)
CC(=O)c1sc2nc(N)nn2c1C	> 4 mM (inactive)
Cc1occc1C(=O)Nc1ccc2c(c1)OCO2	> 4 mM (inactive)
CC(=O)NC(=S)Nc1ccc(C(C)=O)cc1	> 4 mM (inactive)
Cc1ccc2cccc(OC(=O)N3CCCC3)c2n1	> 4 mM (inactive)
OCc1ccc2occc2c1	> 4 mM (inactive)
Cc1ccc2nc(SCC(=O)O)nc(C)c2c1	> 4 mM (inactive)
Cc1c(N=Cc2ccco2)c(=O)n(-c2ccccc2)n1C	> 4 mM (inactive)
Cc1noc(C)c1C(=O)NCc1ccco1	> 4 mM (inactive)
NCc1ccc2c(c1)OCCCO2	> 4 mM (inactive)

Structure (SMILES)	Kd
COc1ccc2c3c1O[C@H]1C[C@@H](O)C=C[C@@]31CCN(C)C2	> 4 mM (inactive)
COc1ccc2c(=O)c(OC)c(-c3ccccc3)oc2c1	> 4 mM (inactive)
C=C1CCC2C(CC2(C)C)C(=O)CCC1O (stereo not given)	> 4 mM (inactive)
Cc1ccc(C(=O)Nn2cnnc2)c(Cl)c1	> 4 mM (inactive)
CCC(=O)Nc1ccc(-c2nn3c(C)nnc3s2)cc1	> 4 mM (inactive)
COc1cccc2c1CCC1=CC(=O)CC[C@@]12C	> 4 mM (inactive)
OC[C@H]1O[C@@H](O[C@H]2[C@H](O)[C@@H](O)[C@@H](O)O[C@@H]2CO)[C@H](O)[C@@H](O)[C@@H]1O	> 4 mM (inactive)
CC(=O)Nc1ccc(S(=O)(=O)N(C)C)cc1	> 4 mM (inactive)
C[C@]12CCC3C(CC[C@]4(O)C[C@@H](O)CC[C@]34C=O)[C@@]1(O)CCC2C1=CC(=O)OC1 (stereo not given in full)	> 4 mM (inactive)
O=C(NCc1cccc(Cl)c1)c1cnccn1	> 4 mM (inactive)
COc1ccccc1NS(=O)(=O)c1c[nH]c(=O)[nH]c1=O	> 4 mM (inactive)
NC(=O)CSc1nnc2ccc(-c3ccco3)nn12	> 4 mM (inactive)
O=C(CSc1nnc2ccccn12)N1CCOCC1	> 4 mM (inactive)
O=C(O)c1ccc(N2CCOCC2)nc1	> 4 mM (inactive)
CC(=O)NS(=O)(=O)c1ccc(C)cc1	> 4 mM (inactive)
NC(=O)c1cccc2c1OCCO2	> 4 mM (inactive)
COc1ccc(NC2=NCC(C)S2)cc1 (stereo not given)	> 4 mM (inactive)
CSc1ccccc1NC(=O)c1cnccn1	> 4 mM (inactive)
CS(=O)(=O)c1ccc2nc(N)sc2c1	> 4 mM (inactive)
CC(C)(C)c1cc(N)n[nH]1	> 4 mM (inactive)
C(=C\c1ccccc1)/C=N/n1cnnc1	> 4 mM (inactive)
O=C1c2ccncc2C(=O)N1CNc1ccccn1	> 4 mM (inactive)

Structure (SMILES)	Kd
Cc1cc(NC(=O)c2cc(C)on2)no1	> 4 mM (inactive)
Cc1cc(C(=O)N2CCN(S(C)(=O)=O)CC2)cs1	> 4 mM (inactive)
C=CCn1c(-c2ccc(O)cc2)n[nH]c1=S	> 4 mM (inactive)
Cc1cc(C(=O)N2CCN(c3ccccn3)CC2)c(C)o1	> 4 mM (inactive)
Cc1cc(=O)n2[nH]c(C)cc2n1	> 4 mM (inactive)
C=C(C)[C@H]1Cc2c(ccc3c2O[C@@H]2COc4cc(OC)c(OC)cc4[C@@H]2C3=O)O1	> 4 mM (inactive)
COc1ccccc1NC(=O)NC(N)=O	> 4 mM (inactive)
C=C[C@](C)(O)CCC=C(C)C	> 4 mM (inactive)
Cc1cc(C)n(CC(=O)O)n1	> 4 mM (inactive)
CCOC(=O)c1c(C)nc2c(C#N)cnn2c1C	> 4 mM (inactive)
COc1c(O)cc2oc3cc(O)c(CC=C(C)C)c(O)c3c(=O)c2c1CC=C(C)C	> 4 mM (inactive)
Cc1cccc(NC(=O)Nc2cc(C)on2)c1	> 4 mM (inactive)
OC(c1ccccc1)c1ccccn1 (stereo not given)	> 4 mM (inactive)
COc1ccc(/C=C2/C(=O)N=C(N)N2C)cc1OC	> 4 mM (inactive)
O=C(NC12CC3CC(CC(C3)C1)C2)c1cnccn1	> 4 mM (inactive)
CCNC(=S)NS(=O)(=O)c1ccccc1	> 4 mM (inactive)
CCOC(=O)Nc1ccc2c(C)cc(=O)oc2c1	> 4 mM (inactive)
Cc1cc(OC(=O)c2ccco2)c([N+](=O)[O-])c(=O)[nH]1	> 4 mM (inactive)
CN(C)c1ccc(/C=C2/NC(=S)NC2=O)cc1	> 4 mM (inactive)
S=C(NC1=NCCS1)Nc1ccccc1	> 4 mM (inactive)
c1ccc(NCc2nc(-c3ccccc3)no2)cc1	> 4 mM (inactive)
Cc1nnc(SCC(=O)NCc2ccccc2)[nH]c1=O	> 4 mM (inactive)

Structure (SMILES)	Kd
c1coc(CNc2ncnc3nc[nH]c23)c1	> 4 mM (inactive)
COc1cccc(-c2csc(NC(C)=O)n2)c1	> 4 mM (inactive)
CCOc1nc(C)ccc1-c1noc(-c2ccco2)n1	> 4 mM (inactive)
Cc1cc(=O)c2c(O)cc(O)c(C)c2o1	> 4 mM (inactive)
CC(=O)Nc1nnc(-c2ccccn2)o1	> 4 mM (inactive)
Cc1cc(=O)cc(C)n1NC(N)=S	> 4 mM (inactive)
CC1=CC(=O)CC(C)(C)C1(O)/C=C/C(C)=C\C(=O)O (stereo not given)	> 4 mM (inactive)
OCC1COc2ccccc2O1 (stereo not given)	> 4 mM (inactive)
NCc1ccc2occc2c1	> 4 mM (inactive)
Nc1cccc(OC(F)(F)F)c1	> 4 mM (inactive)
O=C(c1cccc(C(F)(F)F)c1)N1CCCC1	> 4 mM (inactive)
O=C(O)CNCC(O)Cn1c2ccccc2c2ccccc21 (stereo not given)	> 4 mM (inactive)
CCOC(=O)CSCC(=O)Nc1nccs1	> 4 mM (inactive)
Cc1[nH]c2ccccc2c1C=Nn1cncn1	> 4 mM (inactive)
NC(=O)c1ccccc1N1CCCCC1	> 4 mM (inactive)
C=C(C)[C@@H]1CC[C@]2(CO)CC[C@]3(C)[C@H](CCC4[C@@]5(C)CC[C@H](O)C(C)(C)C5CC[C@]43C)C12 (stereo not given in full)	> 4 mM (inactive)
COc1ccc(Cc2nccc3cc(OC)c(OC)cc23)cc1OC	> 4 mM (inactive)
NC(=O)c1ccc(C(N)=O)c(-c2ccccc2)c1	> 4 mM (inactive)
O=C(O)c1cn(-c2ccccc2)nc1-c1ccncc1	> 4 mM (inactive)
